# Measurements reported in patent publication US12576070B2, “Medicine for improving state of pregnancy, and use thereof” (priority 2014, dated 2026).
# What was measured:
# [1] = test system: infertilitas patients with three or more consecutive miscarriages, stillbirths, or intrauterine fetal growth retardations; assay: Tacrolimus treatment of infertilitas patients from establishment of pregnancy until delivery (Example 2); assay type: in vivo, human
# Description: These patients were a group of patients for whom clear findings of abnormality related to infertility were not recognized with a serological examination that had been performed in advance.
# The patients were evaluated through a transvaginal ultrasound examination, a Fallopian tube patency test, and hysteroscopy before an index ART cycle. Among the participants, no one had submucosal myoma, endometrial polyps, intrauterine adhesion, congenital abnormalities in the uterus, or hydrosalpinx. […] Any women who had experienced miscarriage in the previous IVF cycle, who had received an IVF cycle, or who had received vaccination, all within three months, were excluded from the subjects. Any women with acquired or congenital thrombophilia were excluded from the subjects.
# The analysis was carried out according to the method described in Example 1. However, the determination of the Th1/Th2 cell ratio in a patient was carried out immediately after establishment of pregnancy (the day of confirming establishment of pregnancy). The level of the Th1/Th2 cell ratio was determined according to the average value+1 standard deviation method in the same manner as in Example 1, and a Th1/Th2 cell ratio that was equal to 10.3 or higher than that was classified as an increased Th1/Th2 cell ratio.
# All of the eleven patients were subjected to treatment with tacrolimus in the same manner as in Example 1, except for the duration of administration. […] The duration of administration of tacrolimus was from the time point immediately after establishment of pregnancy was confirmed by a pregnancy test and the Th1/Th2 cell ratio was checked, until the day of delivery, in all cases.
# The treatment was carried out in the same manner as in Example 1.
# The analysis was carried out in the same manner as in Example 1.
# [2] = test system: women with a history of or susceptible to pregnancy-induced hypertension syndrome; assay: Tacrolimus treatment of women at risk of pregnancy-induced hypertension syndrome (Example 3); assay type: in vivo, human
# Description: Once pregnancy-induced hypertension syndrome develops, the possibility of experiencing repeated onset in the subsequent gestations is very high. The patients were evaluated through a transvaginal ultrasound examination, a Fallopian tube patency test, and hysteroscopy before an index ART cycle. […] Any women who had experienced miscarriage in the previous IVF cycle, who had received an IVF cycle, or who had received vaccination, all within three months, were excluded from the subjects. Any women with acquired or congenital thrombophilia were excluded from the subjects. All the patients were subjected to treatment with tacrolimus in the same manner as in Example 2. The dose of tacrolimus was 1 mg to 3 mg per day. The duration of administration of tacrolimus was from the time point immediately after establishment of pregnancy was confirmed by a pregnancy test, until the day of delivery, in all cases. In Case 1 and Case 3 described below, 3 mg of tacrolimus per day was administered everyday from the time point immediately after establishment of pregnancy was confirmed and until the second trimester of pregnancy, and 2 mg of tacrolimus per day was administered everyday from the third trimester of pregnancy until the delivery. In Case 2 described below, 2 mg of tacrolimus per day was administered everyday from the time point immediately after establishment of pregnancy was confirmed and until the delivery. The treatment was carried out in the same manner as in Example 2. The effects of administering tacrolimus were evaluated on the basis of whether the patients satisfactorily maintained the state of pregnancy without developing pregnancy-induced hypertension syndrome at predetermined time points between the second trimester and the third trimester of pregnancy. Cases in which the evaluation has been roughly completed are as follows.
# [3] = infertilitas patients n = 11, tacrolimus 1-3 mg per day from confirmation of pregnancy until delivery
structure (smiles),measurement,setting,value
"C=CCC1/C=C(\C)CC(C)CC(OC)C2OC(O)(C(=O)C(=O)N3CCCCC3C(=O)OC(/C(C)=C/C3CCC(O)C(OC)C3)C(C)C(O)CC1=O)C(C)CC2OC (stereo not shown) [tacrolimus, 17-Allyl-1,14-dihydroxy-12-[2-(4-hydroxy-3-methoxycyclohexyl)-1-methylvinyl]-23,2 5-dimethoxy-13,19,21,27-tetramethyl-11,28-dioxa-4-azatricyclo[22.3.1.04,9]octacos-18-ene-2,3,10,16-tetraone]",APGAR Score 1 minute,[1]; Full term birth (8 babies),8.0 ± 1.0
same,APGAR Score 5 minute,[1]; Full term birth (8 babies),9.0 ± 0.5
same,Birth weight (gm),[1]; Full term birth (8 babies),3149 ± 234 gm
same,Complications of mother,[1]; Full term birth (8 babies),0
same,Complications of newborn baby,[1]; Full term birth (8 babies),0
same,Number of gestational days,[1]; Full term birth (8 babies),279.3 ± 6.0 days
same,Umbilical cord blood pH,[1]; Full term birth (8 babies),7.3 ± 0.12
same,APGAR Score 1 minute,[1]; Premature birth case,6
same,APGAR Score 5 minute,[1]; Premature birth case,8
same,Birth weight (gm),[1]; Premature birth case,748 gm
same,Number of gestational days,[1]; Premature birth case,208 days
same,Umbilical cord blood pH,[1]; Premature birth case,7.304
same,Complications of newborn baby,"[1]; Premature birth case, Low birth weight baby",1 (Low birth
same,Complications of mother,"[1]; Premature birth case, Pregnancy-induced hypertension",1 (Pregnancy-
same,Number of newborn babies (n): Miscarriage,[1]; [3],2 n
same,Number of newborn babies (n): Premature birth,[1]; [3],1 n
same,increase in blood pressure,"[2]; Case 1 (intrauterine fetal death in week 38 in previous gestation), 3 mg per day until second trimester, 2 mg per day from third trimester until delivery",did not experience an increase in blood pressure
same,gave birth to a healthy baby in week,"[2]; Case 1, 3 mg per day until second trimester, 2 mg per day from third trimester until delivery",39 week
same,increase in blood pressure,"[2]; Case 2 (twin pregnancy with infertilitas and positive anti-phosphorus antibody), 2 mg per day until delivery",did not experience an increase in blood pressure
same,gave birth to a healthy baby in week,"[2]; Case 2, 2 mg per day until delivery, premature rupture of the membrane caused by cough, premature birth of twin",35 week
same,edema and tendency of blood pressure increase,"[2]; Case 3 (intrauterine fetal death in week 32 in previous gestation), 3 mg per day until second trimester, 2 mg per day from third trimester",without edema and without a tendency of blood pressure increase
same,currently passing week of pregnancy,"[2]; Case 3, 3 mg per day until second trimester, 2 mg per day from third trimester",34 week
